The values that follow come from patent US20260317333A1, “Heteroaryl Compounds as Ligand Directed Degraders of IRAK4” (Celgene Corporation, priority 2023, published 2026).

The target in test [1] is T1, IRAK4 (Homo sapiens, UniProt Q9NWZ3).
T1 sequence (Q9NWZ3 1-460): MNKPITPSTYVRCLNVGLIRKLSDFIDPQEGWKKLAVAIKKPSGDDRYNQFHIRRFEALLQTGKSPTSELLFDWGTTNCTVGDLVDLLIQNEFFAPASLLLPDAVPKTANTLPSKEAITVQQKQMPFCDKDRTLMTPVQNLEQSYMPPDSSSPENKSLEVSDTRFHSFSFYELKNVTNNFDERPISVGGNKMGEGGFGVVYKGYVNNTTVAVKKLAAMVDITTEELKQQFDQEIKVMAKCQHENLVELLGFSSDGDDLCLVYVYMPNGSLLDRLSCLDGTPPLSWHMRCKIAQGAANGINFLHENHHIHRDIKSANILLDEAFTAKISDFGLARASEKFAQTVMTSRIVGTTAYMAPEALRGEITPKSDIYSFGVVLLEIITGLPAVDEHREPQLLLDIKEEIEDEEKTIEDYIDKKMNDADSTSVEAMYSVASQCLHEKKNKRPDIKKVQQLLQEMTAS
As to the kind of experiment: ALE THP1 HTRF (IRAK4 degradation in THP1 cells, HTRF with anti-IRAK4 antibodies). The arrangement: THP1 Homogeneous Time Resolved Fluorescence (ALE THP1 HTRF) Procedure; endogenous in cells; host or cells: THP1. Conditions: THP1 cell lysate; for DC50: read-out: ALE THP1 HTRF EC50. The format is cell-based. Here is the method: Cell culture media was prepared in a tissue culture hood in a sterile environment by adding 10% FBS and 1% Penicillin Streptomycin to 500 mL no phenol red RPMI 1640 media. The media was filtered through a Nalgene Bottle Top Filter and stored at 4° C.
For Homogenous Time Resolved Fluorescence (HTRF) assays, a Cisbio HTRF kit was used, which included: Lysis Buffer #1 4×, Blocking Reagent #3 100×, 20× Antibody 1 (Anti-IRAK4 d2), 20× Antibody 2 (Anti-IRAK4 k), and Detection Buffer.
4× Lysis Buffer was stored at 4° C. For use as 1× Lysis buffer, the 4× solution was diluted with de-ionized water (distilled water, Gibco Cat. #15230279) and 100× Blocking Reagent in a 1:3:0.04 volume ratio.
20× Antibody Solution aliquots were stored at −80° C. and the Detection Buffer was stored at 4° C. For use as a 1× Antibody Solution, the 20× Antibody Solution aliquot was diluted with Detection Buffer in a 1:19 volume ratio.
Cells were lysed at room temperature for 45 min with shaking. A BCA protein assay was performed and normalization was conducted to the desired total protein concentration with 1× lysis buffer. Next, 1× Antibody Solutions were prepared by adding 380 μL Detection Buffer to 20 μL 20× Antibody Solution aliquots and mixing well. 1× Antibody Solutions were combined 1:1 and briefly vortexed. For control wells, 20 μL 1× anti IRAK4-k Antibody Solution was saved. The 384-well plate (ProxiPlate-384 Plus, Perkin Elmer Cat. #6008289) was loaded by adding 4 μL of the mixed Antibody Solution to empty wells using a single channel repeater. Using a multi-channel repeater, 16 μL lysate was added per well, and any bubbles that were formed were popped with 20 μL pipette tips and Kimwipe edges. In column 10, triplicates of each control were prepared. In wells A10, B10, and C10, buffer control was prepared by adding 16 μL Lysis Buffer and 4 μL Detection Buffer. In wells D10, E10, and F10, cryptate control was prepared by adding 16 μL Lysis Buffer, 2 μL Detection Buffer, and 2 μL 1× anti-IRAK4-k Antibody Solution. In wells G10, H10, and I10, a negative control was prepared by adding 16 μL Lysis Buffer and 4 μL mixed Antibody Solution. The plate was sealed with a clear seal and covered with an aluminum lid. The plate was spun down at 800 g for 5 min and incubated in the dark at room temperature overnight. The next day, the plate was spun down at 800 g for 5 min. The samples were analyzed by a plate reader (Envision, PerkinElmer) using the Desnor 384 HTRF program.
(In general: In TR-FRET formats the signal depends on donor and acceptor labels being close together.)

Test [2] has as its target T1, IRAK4. Description: IRAK4 PhosphoSens Biochemical Assay (BIOCHEM). Conditions: 200 μM ATP; 10 μM peptide substrate AQT0326; 1 nM IRAK4; room temperature; 240 minutes. Here is the method:
The PhosphoSens® biochemical assay was performed as described by the vendor (AssayQuant Technologies Inc. Marlborough, MA). A 1.25× stock solution of IRAK4 (PV4002, ThermoFisher Scientific, Waltham, MA) and a 5× stock solution of ATP and Sox conjugated peptide substrate, AQT0326 (CSKS-AQT0326B, AssayQuant Technologies), were prepared in 1× kinase reaction buffer consisting of 50 mM HEPES, pH 7.5, 0.01% Brij-35, 0.5 mM EGTA, 20 mM MgCl2 and 1 mM DTT. 10 μL of the ATP and substrate solution mix, for a final concentration of 200 μM ATP and 10 μM peptide substrate, was added to a Corning 3574 384-well, white, non-binding surface microtiter plate containing 0.5 μL of serially diluted test compounds prepared in DMSO. The reactions were started with the addition of 40 μL of the enzyme solution, for a final IRAK4 concentration of 1 nM, and monitored every 71 seconds for 240 minutes at λEX 360/λEM 485 in a BioTek Synergy H4 plate reader (Agilent Technologies, Santa Clara, CA) at room temperature. The initial linear portions of the progress curves were fit according to a linear equation to yield the slopes and converted to % inhibition based on a value of 100% activity for the no inhibitor treated control. IC50 values of each compound were obtained by fitting the % inhibition-compound concentration curves using Dotmatics software (Dotmatics, Bishops Stortford, Hertfordshire, England).

SMILES strings stand for the structures.

Turning to `N[C@@H]1C[C@@H](F)CN(c2ccn3ncc(C(=O)Nc4cn([C@H]5CC[C@H](CN6CCN(c7ccc(C8CCC(=O)NC8=O)cc7)CC6)CC5)nc4C(F)(F)F)c3n2)C1` (stereo partly drawn) [Compound P-10], at IRAK4 [1], the “ALE THP1 HTRF YMIN” value was 20% and the DC50 was determined as 964 nM. Moreover, the IC50 on IRAK4 [2] stood at 0.6 nM.
As for `N[C@@H]1C[C@@H](F)CN(c2ccn3ncc(C(=O)Nc4cn([C@H]5CC[C@H](C(=O)N6CCC(Nc7cccc(C8CCC(=O)NC8=O)c7)CC6)CC5)nc4C(F)(F)F)c3n2)C1` (stereo partly drawn) [Compound P-9], at IRAK4 [1], the “ALE THP1 HTRF YMIN” value is 86% and the DC50 is > 10000 nM. Moreover, the IC50 on IRAK4 [2] was found to be 0.3 nM.

Usually IC50 stands for the concentration at which inhibition is half-maximal.
